Consider one compound from patent US5166213A, “4-pyridyl substituted-1,3-dioxane compounds” (Imperial Chemical Industries PLC, priority 1988, dated 1992).

The target in data set [1] is T1, thromboxane receptor (Homo sapiens, UniProt P21731).
T1 construct: aggregating human, citrated, platelet-rich plasma; from tissue; host or cells: human platelets (citrated platelet-rich plasma)
T1 sequence (P21731 1-343): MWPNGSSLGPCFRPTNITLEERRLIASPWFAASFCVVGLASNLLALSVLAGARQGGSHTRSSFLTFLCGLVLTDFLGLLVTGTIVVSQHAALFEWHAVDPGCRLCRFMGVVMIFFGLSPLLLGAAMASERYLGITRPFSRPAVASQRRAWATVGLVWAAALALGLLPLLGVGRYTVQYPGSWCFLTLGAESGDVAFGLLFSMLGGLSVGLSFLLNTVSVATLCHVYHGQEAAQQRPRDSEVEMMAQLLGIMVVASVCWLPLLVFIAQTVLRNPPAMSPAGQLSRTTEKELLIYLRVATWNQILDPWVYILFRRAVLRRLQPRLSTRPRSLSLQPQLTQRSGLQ
As to the kind of experiment: test (b): blood platelet aggregation, antagonism of U46619 in citrated platelet-rich plasma. It is filed as cell-based. As to conditions: Example 2, unit inferred. The text has this: (b) a blood platelet aggregation test based on that described by Born (Nature, 1962, 194, 927-929) and involving:
(i) aggregating human, citrated, platelet-rich plasma by addition of the TXA2 mimetic agent U46619 so that a dose-response curve is generated;
(ii) generating a dose-response curve for U46619 stimulated platelet aggregation in the presence of increasing amounts of test compound (generally in the range 10^-5 M to 10^-10 M); and
(iii) calculating a KB value indicating potency of TXA2 antagonism for the test compound, averaged over several concentrations, from the calculated 50% response value for U46619 aggregation in the presence and absence of test compound; or […]

The target in data set [2] is T2, TXA2 synthase (Homo sapiens, UniProt P24557).
T2 construct: using a human platelet microsomal TXA2 synthase preparation; from tissue; host or cells: human platelet microsomes
T2 sequence (P24557 1-533): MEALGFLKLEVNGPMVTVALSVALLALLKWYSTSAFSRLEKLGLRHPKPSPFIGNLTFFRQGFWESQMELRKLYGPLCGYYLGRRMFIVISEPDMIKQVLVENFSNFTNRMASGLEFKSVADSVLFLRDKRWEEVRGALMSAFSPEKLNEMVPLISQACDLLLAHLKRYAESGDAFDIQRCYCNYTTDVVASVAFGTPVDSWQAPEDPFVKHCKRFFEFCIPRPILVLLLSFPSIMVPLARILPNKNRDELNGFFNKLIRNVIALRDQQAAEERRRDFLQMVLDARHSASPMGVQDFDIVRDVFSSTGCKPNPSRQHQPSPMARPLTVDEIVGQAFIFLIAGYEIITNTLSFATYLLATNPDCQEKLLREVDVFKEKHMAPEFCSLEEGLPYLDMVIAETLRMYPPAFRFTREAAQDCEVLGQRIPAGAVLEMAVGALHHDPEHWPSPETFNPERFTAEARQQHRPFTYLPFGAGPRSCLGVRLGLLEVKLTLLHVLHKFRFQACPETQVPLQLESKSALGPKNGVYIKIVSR
As to the kind of experiment: test (e): in vitro inhibition of human platelet microsomal TXA2 synthase (conversion of [1-^14 C]arachidonic acid to TXB2). The data set is classed as biochemical.

The subject of data set [3] is TXA2 synthase. Briefly: test (f): TXB2 production in blood samples from dosed rats. The following applies: oral dose of 25 mg/kg, up to 5 hours. The data set is classed as in vivo, rat. The protocol:
The samples treated with anti-coagulant are first incubated at 37° C. with collagen (at about 100 micro M), then mixed with the cyclooxygenase inhibitor indomethacin (at about 10^-3 M), centrifuged and the level of the TXA2 metabolite, TXB2, determined by a standard radioimmunoassay technique. By comparison of the amount of TXB2 present in the plasma from animals dosed with test compound with that in the plasma of a control group dosed with placebo, the TXA2 synthase inhibitory properties may be assessed.

Data set [4] can be described thus: observable signs of toxicity in test (f), rats. It is filed as in vivo, rat. As to conditions: oral dose of 25 mg/kg.

In general, Kb refers to the affinity of an antagonist, worked out from how it opposes an agonist. High values mean lower antagonist affinity, low ones higher antagonist affinity. By IC50 is commonly meant the concentration at which inhibition is half-maximal.

For `O=C(O)CC/C=C\C[C@@H]1CO[C@H](c2ccccc2Cl)O[C@@H]1c1cccnc1` (relative stereo) [Example 2, 4(Z)-6-[(2,4,5-cis)-2-(2-chlorophenyl)-4-(3-pyridyl)-1,3-dioxan-5-yl]hexenoic acid], the Kb in data set [1] amounted to 650 nM. The midpoint of inhibition in data set [2], the IC50, lay at 48 nM. Further, the “inhibition of TXB2 production” value in data set [3] is given as “essentially complete inhibition of TXB2 production”. Besides, the “observable signs of toxicity” value in data set [4] was “without any observable signs of toxicity”.
